From patent US11807693B2 (priority 2014, dated 2023) come the findings set out here.

The term fraction remaining denotes the share of the starting amount still present when the sample was taken.

Starred links: 1 amine or outer side, 2 acyl side, 3 side chain; linkers in the order of their positions; H or OH if unused. Non-standard residues stand in square brackets, D forms with d. Residues, ends and D or L forms follow the SMILES beside them. ξ: configuration not given here. *: point of attachment. Oic = O=C(O)[C@@H]1C[C@@H]2CCCC[C@@H]2N1; Phe(4-Cl) = N[C@@H](Cc1ccc(Cl)cc1)C(=O)O; γGlu = O=C(O)[C@H](CCC(=O)[*:2])N[*:1]; NMeR = CN[C@@H](CCCNC(=N)N)C(=O)O; Palmitoyl = CCCCCCCCCCCCCCCC(=O)*; Tridecanoyl = CCCCCCCCCCCCC(=O)*; hArg = N=C(N)NCCCC[C@H](N)C(=O)O; Cha = N[C@@H](CC1CCCCC1)C(=O)O; Aic = NC1(C(=O)O)Cc2ccccc2C1; Pip = O=C(O)[C@@H]1CCCCN1; Nle = CCCC[C@H](N)C(=O)O; ξαMeP = CC1(C(=O)O)CCCN1; ξβ3hV = CC(C)C(N)CC(=O)O; AEEA = NCCOCCOCC(=O)O; Aib = CC(C)(N)C(=O)O

Type in all cases: in vitro ADME
The nature of data set [1]: In vitro stability in rat liver homogenate. The note with it: tissue homogenate. Put shortly:
(§1)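 Stability was followed for 4 hr at 37° C. after spiking peptides (5 μM final) into rat plasma and tissue homogenates. Methanol quench with internal standard preceded high resolution LC-MS.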

The nature of data set [2]: In vitro stability in rat kidney homogenate. The following applies: rat, tissue homogenate. Here is the method: Apelin peptides were spiked into rat plasma, liver homogenate, and kidney homogenate, which were obtained from commercial sources, to a final concentration of 5 μM. The samples were then incubated at 37° C. over a period of 4 hr. […] In a typical experiment, an aliquot of 100 μL of sample was taken from the incubation vial, followed by addition of 300 μL of MeOH containing internal standard. The quenched sample was centrifuged at 5500 g for 15 min after 15 min vortex in room temperature. The supernatant was then analyzed by high resolution LC-MS. […] In vitro plasma, […], and kidney stability results are shown below in Table 14.

Data set [3] is described as follows: In vitro stability in rat plasma. Put shortly:
as §1

For `CCCCCCCCCCCCCCCC(=O)N[C@@H](CCC(=O)NCCOCCOCC(=O)NCCOCCOCC(=O)N[C@H](CCC(N)=O)C(=O)N[C@@H](CCCNC(=N)N)C(=O)N1CCC[C@H]1C(=O)N(C)[C@@H](CCCNC(=N)N)C(=O)N[C@@H](CC1CCCCC1)C(=O)N[C@@H](CO)C(=O)N[C@@H](Cc1c[nH]cn1)C(=O)N[C@@H](CCCCN)C(=O)NCC(=O)N1CCCC[C@H]1C(=O)N[C@@H](CCCC)C(=O)N1CCC[C@H]1C(=O)NC1(C(=O)O)Cc2ccccc2C1)C(=O)O` [compound 590] ({Palmitoyl-γGlu-AEEA-AEEA}-[dQ]RP[NMeR][Cha]SHKG[Pip][Nle]P[Aic]-OH), the fraction remaining at 4 h, 5 μM in data set [1] is 11%; in data set [2], 4%; in data set [3], 86%.

As for `CCCCCCCCCCCCC(=O)N[C@@H](CCC(=O)NCCOCCOCC(=O)NCCOCCOCC(=O)N[C@H](CCC(N)=O)C(=O)N[C@@H](CCCNC(=N)N)C(=O)N1CCCC1(C)C(=O)N[C@@H](CCCCNC(=N)N)C(=O)NC(CC(=O)N[C@@H](CO)C(=O)N[C@@H](Cc1c[nH]cn1)C(=O)N[C@@H](CCCCN)C(=O)NCC(=O)N1CCCC1(C)C(=O)N[C@@H](CCCC)C(=O)N1CCCC1(C)C(=O)N[C@@H](Cc1ccc(Cl)cc1)C(=O)O)C(C)C)C(=O)O` (stereo partly drawn) [compound 504], the fraction remaining at 4 h, 5 μM in data set [1] is 11%; in data set [2] it was 4%; in data set [3], more than 90%.

Take `CCCCCCCCCCCCC(=O)N[C@H](CC(=O)O)C(=O)NCCOCCOCC(=O)NCCOCCOCC(=O)N[C@H](CCC(N)=O)C(=O)N[C@@H](CCCNC(=N)N)C(=O)N1CCC[C@H]1C(=O)N(C)[C@@H](CCCNC(=N)N)C(=O)N[C@@H](CC1CCCCC1)C(=O)N[C@@H](CO)C(=O)N[C@@H](Cc1c[nH]cn1)C(=O)N[C@@H](CCCCN)C(=O)NCC(=O)N1[C@H](C(=O)N[C@@H](CCCC)C(=O)NC(C)(C)C(=O)N[C@@H](Cc2ccc(Cl)cc2)C(=O)O)C[C@@H]2CCCC[C@@H]21` [compound 538] (Tridecanoyl-[dD][AEEA][AEEA][dQ]RP[NMeR][Cha]SHKG[Oic][Nle][Aib][Phe(4-Cl)]-OH): the amount remaining at 4 h, 5 μM is 2% in data set [1], less than 1% in data set [2] and 73% in data set [3].

On to `CCCCCCCCCCCCC(=O)N[C@@H](CCC(=O)NCCOCCOCC(=O)NCCOCCOCC(=O)N[C@@H](CCCC)C(=O)N[C@@H](CCC(N)=O)C(=O)N[C@@H](CCCNC(=N)N)C(=O)N1CCC[C@H]1C(=O)N[C@@H](CCCCNC(=N)N)C(=O)N[C@@H](CC1CCCCC1)C(=O)N[C@@H](CO)C(=O)N[C@@H](Cc1c[nH]cn1)C(=O)N[C@@H](CCCCN)C(=O)NCC(=O)N1[C@H](C(=O)N[C@@H](CCCC)C(=O)N2CCC[C@H]2C(=O)N[C@@H](Cc2ccc(Cl)cc2)C(=O)O)C[C@@H]2CCCC[C@@H]21)C(=O)O` [compound 338] ({Tridecanoyl-γGlu-AEEA-AEEA}-[Nle]QRP[hArg][Cha]SHKG[Oic][Nle]P[Phe(4-Cl)]-OH), for which the share remaining at 4 h, 5 μM stood at 12% in data set [1], 1% in data set [2] and 76% in data set [3].

On to `CCCCCCCCCCCCC(=O)N[C@@H](CCC(=O)NCCOCCOCC(=O)NCCOCCOCC(=O)N[C@@H](CCC(N)=O)C(=O)N[C@@H](CCCNC(=N)N)C(=O)N1CCCC1(C)C(=O)N[C@@H](CCCCNC(=N)N)C(=O)NC(CC(=O)N[C@@H](CO)C(=O)N[C@@H](Cc1c[nH]cn1)C(=O)N[C@@H](CCCCN)C(=O)NCC(=O)N1[C@H](C(=O)N[C@@H](CCCC)C(=O)N2CCC[C@H]2C(=O)N[C@@H](Cc2ccc(Cl)cc2)C(=O)O)C[C@@H]2CCCC[C@@H]21)C(C)C)C(=O)O` (stereo partly drawn) [compound 392] ({Tridecanoyl-γGlu-AEEA-AEEA}-QR[ξαMeP][hArg][ξβ3hV]SHKG[Oic][Nle]P[Phe(4-Cl)]-OH), for which the figures for the amount remaining at 4 h, 5 μM in data set [1], in data set [2] and in data set [3] were 82%, less than 1% and 73%, respectively.
